This note sets out measurements from PMC3755965, “A Small Peptide with Therapeutic Potential for Inflammatory Acne Vulgaris” (PLoS ONE, 2013).

Values after ≈ are worked out from the molar mass of the structure shown. Where a SMILES comes first, the peptide text is derived from it.

Data set [1] can be described thus: Effect of human plasma on antibacterial activity (inhibition zone). It counts as in vitro ADME. The conditions noted are these: 100 µM, 37°C, inhibition zone on P. acnes ATCC6919, S. epidermidis 09A3726, S. aureus 09B2499, three experiments. As to the method: LZ1 or human cathelicidin antimicrobial peptide LL-37 (control) was mixed with human plasma (final concentration 100 µM) for 0, 0.5, 1, 2, 4, 6 and 8 hours at 37°C, respectively. Residual antibacterial activity was evaluated by using 10 µl aliquot of the mixture to measure inhibitory zone on bacterial growth on BHI or LB broth containing 0.7% agar as previously described. The diameters of inhibition zones were recorded after 72-hour incubation for P. acnes and 24-hour incubation for S. epidermidis and S. aureus, respectively.

A further data set concerns P. acnes ATCC11827. Conditions: BHI broth, anaerobic, 37°C, 72 h, A600; mean of three independent experiments in duplicates; ND = no detectable activity. As to the method:
(§1) The strains of P. acnes were cultured in brain heart infusion (BHI) broth (HKM, Guangzhou, China) with 1% glucose at 37°C under an anaerobic atmosphere using MGC Anaeropack systems (Mitsubishi, Gas Chemical Co., Inc, Japan), respectively. […] S. epidermidis (09A3726 and 09B2490) and S. aureus (ATCC 2592) were grown in LB (Luria-Bertani) broth as our previous report.
(§2) Briefly, samples were prepared as a stock solution in 0.9% salt water at a series of concentration. 890 µl special broth (BHI broth for P. acnes, LB broth for S. epidermidis and S. aureus), 100 µl bacterial suspension (10^8 CFU/ml) and 10 µl test sample were put together in the test tube under anaerobic conditions at 37°C for 72 h for P. acnes and under aerobic conditions at 37°C for 24 or 48 h for S. epidermidis and S. aureus. An absorbance at 600 nm was measured by a microplate reader to estimate bacterial growth. The MIC was defined as the lowest concentration of test sample completely inhibiting microorganism’s growth.

Data set [2] has as its system P. acnes (IS, DR), clinically isolated strain with clindamycin resistance. Conditions: clindamycin-resistant clinical isolate; BHI broth, anaerobic, 37°C, 72 h, A600; mean of three independent experiments in duplicates; ND = no detectable activity. As to the method:
as §1, §2

In the next data set the test system is S. epidermidis 09A3726. The conditions noted are these: LB broth, aerobic, 37°C, 24 or 48 h, A600; mean of three independent experiments in duplicates; ND = no detectable activity. On the procedure:
as §1, §2

The test system of the next data set is P. acnes ATCC6919. Conditions: BHI broth, anaerobic, 37°C, 72 h, A600; mean of three independent experiments in duplicates; ND = no detectable activity. As to the method:
as §1, §2

A further data set relates to S. epidermidis 09B2490. Conditions: LB broth, aerobic, 37°C, 24 or 48 h, A600; mean of three independent experiments in duplicates. On the procedure: as §1, §2
The next data set relates to S. aureus 09B2499. The conditions noted are these: LB broth, aerobic, 37°C, 24 or 48 h, A600; mean of three independent experiments in duplicates.
Data set [3] concerns Human HaCaT keratinocyte cells. The conditions noted are these: 20 to 200 µg/ml, 24-h treatment, MTT, A570, mean of five experiments.
Method: Human HaCaT keratinocyte cells (1×10^5 cells/ml, obtained from Cell Bank of Kunming Institute of Zoology, Chinese Academy of Sciences) were cultured in 96-well plates with Dulbecco’s modified Eagle’s medium (DMEM, Gibco) containing 10% fetal calf serum and penicillin (100 u/ml)-streptomycin (100 mg/ml) at 37°C in a humidified 5% CO2 atmosphere. Cell viability was evaluated by conventional 3-(4, 5-dimethyl-2-thiazolyl)-2, 5-diphenyl-2H-tetrazolium bromide (MTT) reduction assays. After a 24-h treatment by testing sample, 20 µl of MTT (5 mg/ml) was added to each well. The MTT solution was then removed and 200 µl dimethyl sulfoxide (DMSO) was added to solubilize the MTT-formazan cristals in living cells. The absorbance at 570 nm of the resulting solution was measured. The experiments were performed in triplicate.
For the next data set, the system named is human red blood cells. Conditions: up to 320 µg/ml, 37°C, 30 min, A540, relative to 1% Triton X-100, mean of five experiments. As to the method: Hemolysis assay was undertaken using human red blood cells in liquid medium as our previous reports. Serial dilutions of testing sample were incubated with human red cells at 37°C. After the incubation for 30 min, the cells were centrifuged and the absorbance in the supernatant was measured at 540 nm. Maximum hemolysis was determined by adding 1% Triton X-100 to a sample of cells. Hemolysis of testing samples was calculated as the percentage of cytotoxicity of Triton X-100.

Data set [4] concerns P. acnes (ATCC6919)-induced ear swelling. In words: P. acnes-induced ear swelling in mice. The class given is in vivo, Kunming mice. Conditions: mean of four experiments.
The next data set relates to TNF-α. In words: TNF-α in ear homogenate, ELISA. It counts as in vivo, Kunming mice. The conditions noted are these: day 1 to day 5, epicutaneous 0.2% gel, in words. On the procedure: (§3) Ears of Kunming mice were injected with live P. acnes (ATCC 6919) as described above. The ear was excised on day 1 to day 5 after bacterial injection respectively, and then homogenized in 0.9% salt water (1 ml per ear) with a hand tissue grinder. The supernatant was collected after the centrifugation at 2000 × g for 10 min and then was used for cytokine measurement. The concentration of TNF-α and IL-1β was measured by using enzyme-linked immunosorbent assay kits (Excell Bio, Shanghai, China).

The test system of data set [5] is infiltrated inflammatory cells. Briefly: Histological check of mouse ears (HE stain). The class given is in vivo, Kunming mice. Conditions: 24 h after P. acnes challenge, epicutaneous 0.2% gel, in words. An excerpt:
Ears of Kunming mice were excised and fixed in neutral-buffered 10% formalin solution and embedded in paraffin by routine procedures. The slides were cut at approximately 4 µm and stained routinely with haematoxylin and eosin (HE). Images were obtained using a Nikon Eclipse 80i microscope (Nikon, Japan).

In another data set the test system is P. acnes (ATCC6919). In words: P. acnes colonization within mouse ear (CFU count). Conditions: for P. acnes colonized within the ear: mean of four experiments. It counts as in vivo, Kunming mice. As to the method:
As described previously, P. acnes (ATCC6919) was grown to the exponential-phase in BHI broth and then centrifuged at 1000 g for 10 min. The bacterium pellet was then washed twice and re-suspended in 0.9% salt water (5×10^8 CFU/ml). Kunming mice (20 ± 2 g) were anesthetised by intraperitoneal (IP) administration of ketamine (50 mg/kg) and xylazine (15 mg/kg), and then 20 µl P. acnes solution was intradermally injected into left ears of the mice. Right ears received the same volume of 0.9% salt water. Placebo or 0.2% LZ1 gel (Polyethylene Glycol (PEG) 400: PEG 4000, 1:1) was applied on the surface of right ear skin after injection with P. acnes or saline. […] Ear thickness after 24 h bacterial injection was measured using a micro caliper.
To determine P. acnes number in the ear, the left ear was cut off after 24 h bacterial injection and the mice were sacrificed immediately by cervical dislocation. The ears were wiped to remove gel and then homogenized in 0.9% salt water (1 ml per ear) with a hand tissue grinder. CFUs of P. acnes in the ear were enumerated by plating serial dilutions of the homogenate on BHI plates and the bacterial numbers were counted after 72 h incubation under anaerobic conditions at 37°C.
To further investigate the therapeutical effect, the increase in ear thickness and the P. acnes number in the ear after bacterial injection were determined continuously on day 2 to day 5 as described above. […] All the experimental protocols to use animals were approved by the Animal Care and Use Committee at Kunming Institute of Zoology, Chinese Academy of Sciences.

Another data set has as its system IL-1β. Briefly: IL-1β in ear homogenate, ELISA. It counts as in vivo, Kunming mice. As to the method:
as §3

With `CC(C)[C@H](N)C(=O)N[C@@H](CCCCN)C(=O)N[C@@H](CCCNC(=N)N)C(=O)N[C@@H](Cc1c[nH]c2ccccc12)C(=O)N[C@@H](CCCCN)C(=O)N[C@@H](CCCCN)C(=O)N[C@@H](Cc1c[nH]c2ccccc12)C(=O)N[C@@H](Cc1c[nH]c2ccccc12)C(=O)N[C@@H](CCCNC(=N)N)C(=O)N[C@@H](CCCCN)C(=O)N[C@@H](Cc1c[nH]c2ccccc12)C(=O)N[C@@H](CCCCN)C(=O)N[C@@H](CCCCN)C(=O)N[C@@H](Cc1c[nH]c2ccccc12)C(=O)N[C@H](C(N)=O)C(C)C` [LZ1] (H-VKRWKKWWRKWKKWV-NH2), the “antibacterial activity after incubation with human plasma” value in [1] (8 hours) is “could not be significantly affected”. The MIC stood at 0.6 mg/L (≈ 0.269 µM) with P. acnes ATCC11827; 0.6 mg/L (≈ 0.269 µM) in data set [2]; 4.7 mg/L (≈ 2.11 µM) in the data set with S. epidermidis 09A3726; 0.6 mg/L (≈ 0.269 µM) against P. acnes ATCC6919; 2.3 mg/L (≈ 1.03 µM) in the data set with S. epidermidis 09B2490; 2.3 mg/L (≈ 1.03 µM) in the data set on S. aureus 09B2499. Moreover, in data set [3], the “effects on cell viabilities (cytotoxicity)” value is “no more than 5.6%”. Further, the hemolytic activity entry in the data set on human red blood cells is recorded as “no more than 5.2%”.
In the case of `CCC[C@@H]1C[C@@H](C(=O)N[C@@H]([C@H]2O[C@H](SC)[C@H](OP(=O)(O)O)[C@@H](O)[C@H]2O)[C@H](C)Cl)N(C)C1` [clindamycin, clindamycin phosphate], the “ear thickness, % of the control (un-challenged)” value in [4] (day 1 after P. acnes injection, 0.2% gel epicutaneous) turned out to be 147%; in [4] (day 2, 0.2% gel epicutaneous once per day), 145%; in data set [4] (day 3, 0.2% gel epicutaneous once per day) it was 130%; in data set [4] (day 4, 0.2% gel epicutaneous once per day), 125%; in data set [4] (day 5, 0.2% gel epicutaneous once per day), 105%. For the same compound, the “effect on TNF-α secretion induced by P. acnes challenge” value in the data set with TNF-α is recorded as “no inhibitory effect”. For the same compound, the “number of infiltrated inflammatory cells” value in [5] is “decreased infiltrated inflammatory cells”. Further, the “P. acnes colonized within the ear” value with P. acnes (ATCC6919) (Day 1, 0.2% gel epicutaneous) is listed as 360±77 10^3 CFU per ear; in the data set with P. acnes (ATCC6919) (Day 2, 0.2% gel epicutaneous once per day) it was 32±4.1 10^3 CFU per ear; in the data set with P. acnes (ATCC6919) (Day 3, 0.2% gel epicutaneous once per day) it was 14±1.7 10^3 CFU per ear; in the data set on P. acnes (ATCC6919) (Day 4, 0.2% gel epicutaneous once per day) it was 6±0.5 10^3 CFU per ear; with P. acnes (ATCC6919) (Day 5, 0.2% gel epicutaneous once per day) it was 1.5±0.1 10^3 CFU per ear. Moreover, the “reduction in the number of P. acnes colonized within the ear” value in the data set on P. acnes (ATCC6919) (day 2, versus vehicle) came to 58.9%; with P. acnes (ATCC6919) (day 3, versus vehicle), 58.8%; in the data set on P. acnes (ATCC6919) (day 4, versus vehicle), 71.4%; in the data set with P. acnes (ATCC6919) (day 5, versus vehicle) it was 50%. Further, the “IL-1β concentration in mouse ear” value in the data set with IL-1β (day 1, 1 ml saline per ear, vehicle 483, three experiments) amounted to 346 pg/mL; in the data set on IL-1β (day 2, 1 ml saline per ear, vehicle 221, three experiments) it was 83 pg/mL; in the data set with IL-1β (day 3, 1 ml saline per ear, vehicle 48, three experiments), 43 pg/mL; with IL-1β (day 4, 1 ml saline per ear, vehicle 30, three experiments) it was 45 pg/mL; with IL-1β (day 5, 1 ml saline per ear, vehicle 41, three experiments) it was 46 pg/mL.
As to “LL-37: human cathelicidin antimicrobial peptide LL-37 (control)”, the “antibacterial activity after incubation with human plasma” value in data set [1] (1 hour) is listed as “completely lost its antibacterial activity”.
